Assays:
Format in all cases: cell-based
[1] = system: AR / CBP ternary complex; assay: Ternary complex formation assay (sandwich ELISA, AR capture / CBP detection) in VCaP cell lysates; conditions: 1.5 hours treatment, sandwich ELISA (AR capture, CBP or p300 detection)
Summary of the method: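 VCaP cells (50K/well, 5% charcoal-stripped FBS, ≥3 days) treated with bifunctional compound for 1.5 h, then lysed 30 min at 4 °C. AR captured on anti-AR (AR 441) plates; bound CBP or p300 detected by rabbit mAb plus HRP secondary. QuantaRed chemifluorescence read at ex 570/em 585, immediately and at 5 and 15 min.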

[2] = system: VCaP cells; assay: VCaP growth inhibition assay; conditions: 30 pM R1881, 9 days, CTG
Summary of the method: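 VCaP cells in phenol red-free DMEM/5% CSS, pre-incubated 72 h, then stimulated with R1881 (final 30 pM) and treated with 1:5 serial dilutions (final 100 nM to 10 fM) for 9 days at 37 °C. Viability by CellTiter-Glo luminescence; IC50 from 4-parameter logistic fit of RLU vs concentration.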

[3] = system: HEK-293 cells; assay: HEK-293 growth inhibition assay; conditions: 3 days, CTG
Protocol: Cluster plates are returned to the incubator (37*C/5% CO2) for 24 hours prior to treatment. […] Cluster plates are returned to the incubator for 3 days.
After the 3-day treatment period, 100 uL media was removed from each well by aspiration and 100 uL room temperature CTG reagent (Promega Cat #G7573) is added back to each well. The cluster plates are placed on a shaker and incubated at room temperature for 20 minutes. Following this shaking/incubation, cluster plates are read on a luminometer (BMG ClarioStar). IC50 values are obtained by graphing the RLU data vs. compound concentration with nonlinear regression 4-parameter logistic curves (GraphPad Prism).

| SMILES | EC50 [1] [nM] | IC50 [2] [nM] | IC50 [3] [nM] |
| --- | --- | --- | --- |
| CNC(=O)N1CCc2c(c(N3CCCc4cc(-c5cnn(C)c5)c(C(F)F)cc43)nn2C2CCN(C(=O)CN3CCN(c4ccc(C(=O)NC5C(C)(C)C(Oc6ccc(C#N)c(Cl)c6)C5(C)C)cn4)CC3)CC2)C1 (stereo not drawn) [Compound 42, 1-[1-[2-[4-[5-[[3-(3-chloro-4-cyano-phenoxy)-2,2,4,4-tetramethyl-cyclobutyl]carbamoyl]-2-pyridyl]piperazin-1-yl]acetyl]-4-piperidyl]-3-[7-(difluoromethyl)-6-(1-methylpyrazol-4-yl)-3,4-dihydro-2H-quinolin-1-yl]-N-methyl-6,7-dihydro-4H-pyrazolo[4,3-c] pyridine-5-carboxamide] | < 1 | ≤ 0.1 | > 10000 |
| COc1cc(OC2C(C)(C)C(NC(=O)c3ccc(N4CC5(CCC(N6CCC(n7nc(N8CCCc9cc(-c%10cnn(C)c%10)c(C(F)F)cc98)c8c7CCN(C(C)=O)C8)CC6)CC5)C4)cc3)C2(C)C)ccc1C#N (stereo not drawn) [Compound 273, 4-[7-[4-[5-acetyl-3-[7-(difluoromethyl)-6-(1-methylpyrazol-4-yl)-3,4-dihydro-2H-quinolin-1-yl]-6,7-dihydro-4H-pyrazolo[4,3-c]pyridin-1-yl]-1-piperidyl]-2-azaspiro[3.5]nonan-2-yl]-N-[3-(4-cyano-3-methoxy-phenoxy)-2,2,4,4-tetramethyl-cyclobutyl]benzamide] | < 1 | ≤ 0.1 | > 1000 |
| CC(=O)N1CCc2c(c(-c3cccc4cc(-c5ccc(C(=O)NCCCc6ncc(C(=O)NC7C(C)(C)C(Oc8ccc(C#N)c(Cl)c8)C7(C)C)cn6)nc5)ncc34)nn2C2CCOCC2)C1 (stereo not drawn) [Compound 77, 2-[3-[[5-[8-(5-acetyl-1-tetrahydropyran-4-yl-6,7-dihydro-4H-pyrazolo[4,3-c]pyridin-3-yl)-3-isoquinolyl]pyridine-2-carbonyl]amino]propyl]-N-[3-(3-chloro-4-cyano-phenoxy)-2,2,4,4-tetramethyl-cyclobutyl]pyrimidine-5-carboxamide] | < 1 | 0.1 to 1 | > 10000 |
| CNC(=O)N1CCc2c(c(N3CCCc4cc(-c5cnn(C)c5)c(C(F)F)cc43)nn2C2CCN(C(=O)COC3CCN(c4ncc(C(=O)NC5C(C)(C)C(Oc6ccc(C#N)c(Cl)c6)C5(C)C)cn4)CC3)CC2)C1 (stereo not drawn) [Compound 100, 1-[1-[2-[[1-[5-[[3-(3-chloro-4-cyano-phenoxy)-2,2,4,4-tetramethyl-cyclobutyl]carbamoyl]pyrimidin-2-yl]-4-piperidyl]oxy]acetyl]-4-piperidyl]-3-[7-(difluoromethyl)-6-(1-methylpyrazol-4-yl)-3,4-dihydro-2H-quinolin-1-yl]-N-methyl-6,7-dihydro-4H-pyrazolo[4,3-c]pyridine-5-carboxamide] | < 1 | ≤ 0.1 | > 10000 |
| CC(=O)N1CCc2c(c(-c3cccc4cc(-c5cnc(C(=O)NCc6ncc(C(=O)NC7C(C)(C)C(Oc8ccc(C#N)c(Cl)c8)C7(C)C)cn6)nc5)ncc34)nn2C2CCOCC2)C1 (stereo not drawn) [Compound 75, 5-[8-(5-acetyl-1-tetrahydropyran-4-yl-6,7-dihydro-4H-pyrazolo[4,3-c]pyridin-3-yl)-3-isoquinolyl]-N-[[5-[[3-(3-chloro-4-cyano-phenoxy)-2,2,4,4-tetramethyl-cyclobutyl]carbamoyl]pyrimidin-2-yl]methyl]pyrimidine-2-carboxamide] | > 100 | 0.1 to 1 | > 10000 |
| CC(=O)N1CCc2c(c(N3CCCc4cc(-c5cnn(C)c5)c(C(F)F)cc43)nn2C2CCN(C(=O)C3CCN(c4ncc(C(=O)NC5C(C)(C)C(Oc6ccc(C#N)c(Cl)c6)C5(C)C)cn4)CC3)CC2)C1 (stereo not drawn) [Compound 22, 2-[4-[4-[5-acetyl-3-[7-(difluoromethyl)-6-(1-methylpyrazol-4-yl)-3,4-dihydro-2H-quinolin-1-yl]-6,7-dihydro-4H-pyrazolo[4,3-c]pyridin-1-yl]piperidine-1-carbonyl]-1-piperidyl]-N-[3-(3-chloro-4-cyano-phenoxy)-2,2,4,4-tetramethyl-cyclobutyl]pyrimidine-5-carboxamide] | < 1 | ≤ 0.1 | > 10000 |
| CNC(=O)N1CCc2c(c(N3CCCc4cc(-c5cnn(C)c5)c(C(F)F)cc43)nn2C2CCN(C(=O)COCCN3CCN(c4ncc(C(=O)NC5C(C)(C)C(Oc6ccc(C#N)c(Cl)c6)C5(C)C)cn4)CC3)CC2)C1 (stereo not drawn) [Compound 106, 1-[1-[2-[2-[4-[5-[[3-(3-chloro-4-cyano-phenoxy)-2,2,4,4-tetramethyl-cyclobutyl]carbamoyl]pyrimidin-2-yl]piperazin-1-yl]ethoxy]acetyl]-4-piperidyl]-3-[7-(difluoromethyl)-6-(1-methylpyrazol-4-yl)-3,4-dihydro-2H-quinolin-1-yl]-N-methyl-6,7-dihydro-4H-pyrazolo[4,3-c]pyridine-5-carboxamide] | < 1 | ≤ 0.1 | > 10000 |
| CNC(=O)N1CCc2c(c(N3CCCc4cc(-c5cnn(C)c5)c(C(F)F)cc43)nn2C2CCN(C(=O)COCCOC3CCN(c4ncc(C(=O)NC5C(C)(C)C(Oc6ccc(C#N)c(Cl)c6)C5(C)C)cn4)CC3)CC2)C1 (stereo not drawn) [Compound 98, 1-[1-[2-[2-[[1-[5-[[3-(3-chloro-4-cyano-phenoxy)-2,2,4,4-tetramethyl-cyclobutyl]carbamoyl]pyrimidin-2-yl]-4-piperidyl]oxy]ethoxy]acetyl]-4-piperidyl]-3-[7-(difluoromethyl)-6-(1-methylpyrazol-4-yl)-3,4-dihydro-2H-quinolin-1-yl]-N-methyl-6,7-dihydro-4H-pyrazolo[4,3-c]pyridine-5-carboxamide] | < 1 | ≤ 0.1 | > 10000 |

The next lines start with results.

| EC50 [1] [nM] | IC50 [2] [nM] | SMILES | IC50 [3] [nM] |
| --- | --- | --- | --- |
| < 1 | 0.1 to 1 | CC(=O)N1CCc2c(c(N3CCCc4cc(-c5cnn(C)c5)c(C(F)F)cc43)nn2C2CCN(C(=O)COC3CCN(c4ncc(C(=O)NC5C(C)(C)C(Oc6ccc(C#N)c(Cl)c6)C5(C)C)cn4)CC3)CC2)C1 (stereo not drawn) [Compound 69, 2-[4-[2-[4-[5-acetyl-3-[7-(difluoromethyl)-6-(1-methylpyrazol-4-yl)-3,4-dihydro-2H-quinolin-1-yl]-6,7-dihydro-4H-pyrazolo[4,3-c]pyridin-1-yl]-1-piperidyl]-2-oxo-ethoxy]-1-piperidyl]-N-[3-(3-chloro-4-cyano-phenoxy)-2,2,4,4-tetramethyl-cyclobutyl]pyrimidine-5-carboxamide] | > 10000 |
| < 1 | ≤ 0.1 | CC(=O)N1CCc2c(c(N3CCCc4cc(-c5cnn(C)c5)c(C(F)F)cc43)nn2C2CCN(CC3CCN(c4ncc(C(=O)NC5C(C)(C)C(Oc6ccc(C#N)c(Cl)c6)C5(C)C)cn4)CC3)CC2)C1 (stereo not drawn) [Compound 84, 2-[4-[[4-[5-acetyl-3-[7-(difluoromethyl)-6-(1-methylpyrazol-4-yl)-3,4-dihydro-2H-quinolin-1-yl]-6,7-dihydro-4H-pyrazolo[4,3-c]pyridin-1-yl]-1-piperidyl]methyl]-1-piperidyl]-N-[3-(3-chloro-4-cyano-phenoxy)-2,2,4,4-tetramethyl-cyclobutyl]pyrimidine-5-carboxamide] | > 10000 |
| < 1 | ≤ 0.1 | COc1cc(OC2C(C)(C)C(NC(=O)c3cnc(N4CCC(CN5CCC(n6nc(N7CCCc8cc(-c9cnn(C)c9)c(C(F)F)cc87)c7c6CCN(C(C)=O)C7)CC5)C(C)(C)C4)nc3)C2(C)C)ccc1C#N (stereo not drawn) [Compound 360, 2-[4-[[4-[5-acetyl-3-[7-(difluoromethyl)-6-(1-methylpyrazol-4-yl)-3,4-dihydro-2H-quinolin-1-yl]-6,7-dihydro-4H-pyrazolo[4,3-c]pyridin-1-yl]-1-piperidyl]methyl]-3,3-dimethyl-1-piperidyl]-N-[3-(4-cyano-3-methoxy-phenoxy)-2,2,4,4-tetramethyl-cyclobutyl]pyrimidine-5-carboxamide] | > 1000 |
| < 1 | ≤ 0.1 | CC(=O)N1CCc2c(c(N3CCCc4cc(-c5cnn(C)c5)c(C(F)F)cc43)nn2C2CCN(CC3CN(c4ncc(C(=O)NC5C(C)(C)C(Oc6ccc(C#N)c(Cl)c6)C5(C)C)cn4)C3)CC2)C1 (stereo not drawn) [Compound 20, 2-[3-[[4-[5-acetyl-3-[7-(difluoromethyl)-6-(1-methylpyrazol-4-yl)-3,4-dihydro-2H-quinolin-1-yl]-6,7-dihydro-4H-pyrazolo[4,3-c]pyridin-1-yl]-1-piperidyl]methyl]azetidin-1-yl]-N-[3-(3-chloro-4-cyano-phenoxy)-2,2,4,4-tetramethyl-cyclobutyl]pyrimidine-5-carboxamide] | > 10000 |
| < 1 | ≤ 0.1 | CC(=O)N1CCc2c(c(N3CCCc4cc(-c5cnn(C)c5)c(C(F)F)cc43)nn2C2CCN(C[C@@H]3CCN(c4ncc(C(=O)NC5C(C)(C)C(Oc6ccc(C#N)c(Cl)c6)C5(C)C)cn4)C[C@@H]3C)CC2)C1 (stereo partly drawn) [Compound 275, 2-[(3R,4R)-4-[[4-[5-acetyl-3-[7-(difluoromethyl)-6-(1-methylpyrazol-4-yl)-3,4-dihydro-2H-quinolin-1-yl]-6,7-dihydro-4H-pyrazolo[4,3-c]pyridin-1-yl]-1-piperidyl]methyl]-3-methyl-1-piperidyl]-N-[3-(3-chloro-4-cyano-phenoxy)-2,2,4,4-tetramethyl-cyclobutyl]pyrimidine-5-carboxamide] | > 1000 |

From US20250129070A1, “BIFUNCTIONAL ANDROGEN RECEPTOR COMPOUNDS” (priority 2023, published 2025)
